# From US12668600B2 (Kumquat Biosciences Inc., priority 2023, dated 2026)
# How the values were obtained:
# Format in all cases: biochemical
# KRAS WT = biological target: T1, KRAS WT (Homo sapiens, UniProt P01116); test: HTRF KRAS-SOS1 interaction assay, wildtype KRAS; details: binned ≤2 μM / >2 μM, read-out: Inhibition of KRAS WT (IC50)
# T1 construct: made in house; host or cells: E. coli, e.g. BL21 (DE3)
# Outline: (§1)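 GST-KRAS + anti-GST-Eu; His-hSOS1 + anti-6His-XL665; cpd in DMSO, duplicate, 10–0.01 μM; ~10 min incubation; HTRF ex 337/em 620, 665 nm; IC50 fitted on 665/620 ratio.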
# KRAS G12S = biological target: T2, KRAS G12S (Homo sapiens, UniProt P01116, G12S); test: HTRF KRAS-SOS1 interaction assay, KRAS G12S; details: binned ≤2 μM / >2 μM, read-out: Inhibition of KRAS G12S (IC50)
# T2 construct: made in house; host or cells: E. coli, e.g. BL21 (DE3)
# T2 sequence (P01116 1-188 isoform P01116-2 G12S): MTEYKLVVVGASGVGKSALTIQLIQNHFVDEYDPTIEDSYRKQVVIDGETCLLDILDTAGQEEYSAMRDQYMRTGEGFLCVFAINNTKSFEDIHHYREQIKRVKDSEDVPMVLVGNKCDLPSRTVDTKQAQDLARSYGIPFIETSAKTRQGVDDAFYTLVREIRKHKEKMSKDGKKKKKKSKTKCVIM
# Outline: as §1
# KRAS G12V = biological target: T3, KRAS G12V (Homo sapiens, UniProt P01116, G12V); test: HTRF KRAS-SOS1 interaction assay, KRAS G12V; details: binned ≤2 μM / >2 μM, read-out: Inhibition of KRAS G12V (IC50)
# T3 construct: made in house; host or cells: E. coli, e.g. BL21 (DE3)
# T3 sequence (P01116 1-188 isoform P01116-2 G12V): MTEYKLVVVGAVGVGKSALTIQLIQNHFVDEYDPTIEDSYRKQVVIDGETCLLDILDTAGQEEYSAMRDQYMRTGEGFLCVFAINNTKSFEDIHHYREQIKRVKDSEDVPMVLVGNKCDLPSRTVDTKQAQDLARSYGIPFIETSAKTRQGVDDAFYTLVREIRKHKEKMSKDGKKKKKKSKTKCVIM
# Outline: as §1
# KRAS G12D = biological target: T4, KRAS G12D (Homo sapiens, UniProt P01116, G12D); test: HTRF KRAS-SOS1 interaction assay, KRAS G12D; details: binned ≤2 μM / >2 μM, read-out: Inhibition of KRAS G12D (IC50)
# T4 construct: made in house; host or cells: E. coli, e.g. BL21 (DE3)
# T4 sequence (P01116 1-188 isoform P01116-2 G12D): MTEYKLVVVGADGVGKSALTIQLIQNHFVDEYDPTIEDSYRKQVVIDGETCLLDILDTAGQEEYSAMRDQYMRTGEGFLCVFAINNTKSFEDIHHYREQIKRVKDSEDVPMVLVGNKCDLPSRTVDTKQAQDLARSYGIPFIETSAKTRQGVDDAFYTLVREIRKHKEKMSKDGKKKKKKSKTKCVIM
# Outline: as §1
# T1 sequence (P01116 1-188 isoform P01116-2): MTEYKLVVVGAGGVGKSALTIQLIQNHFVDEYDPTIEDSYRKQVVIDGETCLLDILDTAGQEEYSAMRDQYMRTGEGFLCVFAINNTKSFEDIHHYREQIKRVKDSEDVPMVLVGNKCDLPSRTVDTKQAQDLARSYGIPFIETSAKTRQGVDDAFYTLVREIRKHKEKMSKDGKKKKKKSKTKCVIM
Structure (SMILES),IC50 (KRAS WT),IC50 (KRAS G12S),IC50 (KRAS G12V),IC50 (KRAS G12D)
"CN1CCC[C@H]1COc1nc2c3c(c(Cl)c(-c4ccc(F)c5sc(N)c(C#N)c45)c(F)c3n1)OCCN2C(c1cccnc1N)C(F)F (mixture of isomers) [Compound 769, 2-amino-4-(4-(1-(2-aminopyridin-3-yl)-2,2-difluoroethyl)-8-chloro-10-fluoro-2-(((S)-1-methylpyrrolidin-2-yl)methoxy)-5,6-dihydro-4H-[1,4]oxazepino[5,6,7-de]quinazolin-9-yl)-7-fluorobenzo[b]thiophene-3-carbonitrile]",≤ 2000 nM,≤ 2000 nM,≤ 2000 nM,≤ 2000 nM
"N#Cc1c(N)sc2c(F)ccc(-c3c(Cl)c4c5c(nc(OC[C@@]67CCCN6C[C@H](F)C7)nc5c3F)N([C@H](C/C=C/C(F)(F)F)c3cccnc3N)CCO4)c12 [Compound 733, 2-amino-4-(4-((R,E)-1-(2-aminopyridin-3-yl)-5,5,5-trifluoropent-3-en-1-yl)-8-chloro-10-fluoro-2-(((2R,7aS)-2-fluorotetrahydro-1H-pyrrolizin-7a(5H)-yl)methoxy)-5,6-dihydro-4H-[1,4]oxazepino[5,6,7-de]quinazolin-9-yl)-7-fluorobenzo[b]thiophene-3-carbonitrile]",≤ 2000 nM,≤ 2000 nM,≤ 2000 nM,≤ 2000 nM
"C[C@H](c1nccnc1N)N1CCOc2c(C(F)(F)F)c(-c3ccc(F)c4sc(N)c(C#N)c34)c(F)c3nc(OC[C@@]45CCCN4C[C@@]4(CC4(F)F)C5)nc1c23 [Compound 773, 2-amino-4-(4-((R)-1-(3-aminopyrazin-2-yl)ethyl)-2-(((1S,7a′S)-2,2-difluorodihydro-1′H,3′H-spiro[cyclopropane-1,2′-pyrrolizin]-7a′(5′H)-yl)methoxy)-10-fluoro-8-(trifluoromethyl)-5,6-dihydro-4H-[1,4]oxazepino[5,6,7-de]quinazolin-9-yl)-7-fluorobenzo[b]thiophene-3-carbonitrile]",≤ 2000 nM,≤ 2000 nM,≤ 2000 nM,≤ 2000 nM
"C#CCC(c1cccnc1N)N1CCOc2c(Cl)c(-c3ccc(F)c4sc(N)c(C#N)c34)c(F)c3nc(OC[C@@]45CCCN4C[C@H](F)C5)nc1c23 (single isomer, unassigned) [Compound 764]",≤ 2000 nM,≤ 2000 nM,≤ 2000 nM,≤ 2000 nM
"C[C@H](c1cc(C(F)(F)F)cnc1N)N1CCOc2c(Cl)c(-c3ccc(F)c4sc(N)c(C#N)c34)c(F)c3nc(OC[C@@]45CCCN4C[C@H](F)C5)nc1c23 [Compound 869, 2-amino-4-(4-((R)-1-(2-amino-5-(trifluoromethyl)pyridin-3-yl)ethyl)-8-chloro-10-fluoro-2-(((2R,7aS)-2-fluorotetrahydro-1H-pyrrolizin-7a(5H)-yl)methoxy)-5,6-dihydro-4H-[1,4]oxazepino[5,6,7-de]quinazolin-9-yl)-7-fluorobenzo[b]thiophene-3-carbonitrile]",≤ 2000 nM,≤ 2000 nM,≤ 2000 nM,≤ 2000 nM
"N#Cc1c(N)sc2c(F)ccc(-c3c(C(F)(F)F)c4c5c(nc(OC[C@@]67CCCN6C[C@H](F)C7)nc5c3F)N([C@H](CCC3CCC3)c3cccnc3N)CCO4)c12 (single isomer, unassigned) [Compound 631]",> 2000 nM,≤ 2000 nM,≤ 2000 nM,> 2000 nM
"C[C@H](c1cc(F)cnc1N)N1CCOc2c(C(F)(F)F)c(-c3ccc(F)c4sc(N)c(C#N)c34)c(F)c3nc(OCC4(CN5CCC6(CC5)CC6(F)F)CC4)nc1c23 [Compound 841, 2-amino-4-(4-((R)-1-(2-amino-5-fluoropyridin-3-yl)ethyl)-2-((1-((1,1-difluoro-6-azaspiro[2.5]octan-6-yl)methyl)cyclopropyl)methoxy)-10-fluoro-8-(trifluoromethyl)-5,6-dihydro-4H-[1,4]oxazepino[5,6,7-de]quinazolin-9-yl)-7-fluorobenzo[b]thiophene-3-carbonitrile]",≤ 2000 nM,≤ 2000 nM,≤ 2000 nM,≤ 2000 nM
"Cc1cnc(N)c([C@@H](C)N2CCOc3c(C(F)(F)F)c(-c4ccc(F)c5sc(N)c(C#N)c45)c(F)c4nc(OC[C@@]56CCCN5C[C@H](F)C6)nc2c34)c1 (single isomer, unassigned) [Compound 796]",≤ 2000 nM,≤ 2000 nM,≤ 2000 nM,≤ 2000 nM
"C[C@H](c1nccnc1N)N1CCOc2c(C(F)(F)F)c(-c3ccc(F)c4sc(N)c(C#N)c34)c(F)c3nc(OC[C@@]45CCCN4C[C@H](F)C5)nc1c23 (single isomer, unassigned) [Compound 760]",≤ 2000 nM,≤ 2000 nM,≤ 2000 nM,≤ 2000 nM
"N#Cc1c(N)sc2c(F)ccc(-c3c(C(F)(F)F)c4c5c(nc(OC[C@@]67CCCN6[C@H](COc6nccnc6C(F)F)CC7)nc5c3F)N([C@@H](c3cccnc3N)C(F)F)CCO4)c12 (single isomer, unassigned) [Compound 605]",≤ 2000 nM,≤ 2000 nM,≤ 2000 nM,≤ 2000 nM
"N#Cc1c(N)sc2c(F)ccc(-c3c(Cl)c4c5c(nc(OC[C@@]67CCCN6C[C@H](F)C7)nc5c3F)N([C@H](C#CC3CC3)c3cccnc3N)CCO4)c12 [Compound 609, 2-amino-4-(4-((R)-1-(2-aminopyridin-3-yl)-3-cyclopropylprop-2-yn-1-yl)-8-chloro-10-fluoro-2-(((2R,7aS)-2-fluorotetrahydro-1H-pyrrolizin-7a(5H)-yl)methoxy)-5,6-dihydro-4H-[1,4]oxazepino[5,6,7-de]quinazolin-9-yl)-7-fluorobenzo[b]thiophene-3-carbonitrile]",≤ 2000 nM,≤ 2000 nM,≤ 2000 nM,≤ 2000 nM
"CCO/N=C(\C)CCC[C@H](c1cccnc1N)N1CCOc2c(C(F)(F)F)c(-c3ccc(F)c4sc(N)c(C#N)c34)c(F)c3nc(OC[C@@]45CCCN4C[C@H](F)C5)nc1c23 (single isomer, unassigned) [Compound 715]",≤ 2000 nM,≤ 2000 nM,≤ 2000 nM,≤ 2000 nM
"C[C@H](c1cc(F)cnc1N)N1CCOc2c(C(F)(F)F)c(-c3ccc(F)c4sc(N)c(C#N)c34)c(F)c3nc(OC[C@@]45CCCN4C[C@H](F)C5)nc1c23 (single isomer, unassigned) [Compound 682]",> 2000 nM,> 2000 nM,> 2000 nM,> 2000 nM
"C[C@H](Oc1nc2c3c(c(C(F)(F)F)c(-c4ccc(F)c5sc(N)c(C#N)c45)c(F)c3n1)OCCN2[C@H](C)c1cccnc1N)[C@@H]1C[C@@H](F)CN1C [Compound 890, 2-amino-4-(4-((R)-1-(2-aminopyridin-3-yl)ethyl)-10-fluoro-2-((S)-1-((2S,4R)-4-fluoro-1-methylpyrrolidin-2-yl)ethoxy)-8-(trifluoromethyl)-5,6-dihydro-4H-[1,4]oxazepino[5,6,7-de]quinazolin-9-yl)-7-fluorobenzo[b]thiophene-3-carbonitrile]",≤ 2000 nM,≤ 2000 nM,≤ 2000 nM,≤ 2000 nM
"C[C@H](c1cc(Cl)cnc1N)N1CCOc2c(C(F)(F)F)c(-c3ccc(F)c4sc(N)c(C#N)c34)c(F)c3nc(OCC4(CN5CC[C@@H](F)C5)CC4)nc1c23 [Compound 811, 2-amino-4-(4-((R)-1-(2-amino-5-chloropyridin-3-yl)ethyl)-10-fluoro-2-((1-(((R)-3-fluoropyrrolidin-1-yl)methyl)cyclopropyl)methoxy)-8-(trifluoromethyl)-5,6-dihydro-4H-[1,4]oxazepino[5,6,7-de]quinazolin-9-yl)-7-fluorobenzo[b]thiophene-3-carbonitrile]",≤ 2000 nM,≤ 2000 nM,≤ 2000 nM,≤ 2000 nM
"C#Cc1c(F)ccc2cc(O)cc(-c3nc4c5c(nc(O[C@@H](C)[C@@H]6CCCN6C)nc5c3F)N([C@H](C)c3cccnc3N)CCO4)c12 (single isomer, unassigned) [Compound 779]",≤ 2000 nM,≤ 2000 nM,≤ 2000 nM,≤ 2000 nM
"C[C@H](c1cccnc1N)N1CCOc2nc(-c3ccc(F)c4sc(N)c(C#N)c34)c(F)c3nc(OC[C@@H]4CCCN4C)nc1c23 (single isomer, unassigned) [Compound 651]",≤ 2000 nM,≤ 2000 nM,≤ 2000 nM,≤ 2000 nM
"Cc1cnc(N)c([C@@H](C)N2CCOc3c(C(F)(F)F)c(-c4ccc(F)c5sc(N)c(C#N)c45)c(F)c4nc(OC[C@@]56CCCN5C[C@H](F)C6)nc2c34)n1 (single isomer, unassigned) [Compound 718]",≤ 2000 nM,≤ 2000 nM,≤ 2000 nM,> 2000 nM
"CCN1CC[C@H](OC)[C@H]1[C@H](C)Oc1nc2c3c(c(C(F)(F)F)c(-c4ccc(F)c5sc(N)c(C#N)c45)c(F)c3n1)OCCN2[C@H](C)c1cccnc1N [Compound 896, 2-amino-4-(4-((R)-1-(2-aminopyridin-3-yl)ethyl)-2-((S)-1-((2R,3S)-1-ethyl-3-methoxypyrrolidin-2-yl)ethoxy)-10-fluoro-8-(trifluoromethyl)-5,6-dihydro-4H-[1,4]oxazepino[5,6,7-de]quinazolin-9-yl)-7-fluorobenzo[b]thiophene-3-carbonitrile]",≤ 2000 nM,≤ 2000 nM,≤ 2000 nM,≤ 2000 nM
